The source of these data is ChEMBL document CHEMBL6178019, “Discovery of CYP1A1 Inhibitors for Host-Directed Therapy against Sepsis” (J Med Chem, 2025).

What all share (format): cell-based
Data set [1] concerns the target T1, CYP1A1 (Homo sapiens, UniProt P04798).
T1 sequence (P04798 whole entry): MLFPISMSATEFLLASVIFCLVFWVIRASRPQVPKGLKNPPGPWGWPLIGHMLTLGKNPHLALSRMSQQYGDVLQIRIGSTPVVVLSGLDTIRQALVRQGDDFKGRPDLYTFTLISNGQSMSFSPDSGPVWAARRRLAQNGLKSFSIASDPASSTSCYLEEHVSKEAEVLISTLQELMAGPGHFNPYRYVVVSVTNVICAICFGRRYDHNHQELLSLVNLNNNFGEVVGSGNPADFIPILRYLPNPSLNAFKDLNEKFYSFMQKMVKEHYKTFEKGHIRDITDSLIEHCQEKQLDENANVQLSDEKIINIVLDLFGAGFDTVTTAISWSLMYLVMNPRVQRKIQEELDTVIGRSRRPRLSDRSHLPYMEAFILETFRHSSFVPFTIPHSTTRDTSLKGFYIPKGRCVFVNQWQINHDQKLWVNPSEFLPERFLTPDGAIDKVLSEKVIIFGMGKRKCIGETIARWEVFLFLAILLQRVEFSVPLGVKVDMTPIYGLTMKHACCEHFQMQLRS
In words: Inhibition of CYP1A1 in human Caco-2 cells assessed as relative activity by measuring fold change at 500 nM incubated for 12 hrs by EROD assay relative to control. Conditions: read-out: FC.

In data set [2] the target is T2, Cytochrome P450 1A1 (Homo sapiens, UniProt P04798).
T2 sequence (P04798 whole entry): T1 sequence (P04798 whole entry)
Briefly: Inhibition of CYP1A1 in human Caco-2 cells assessed as relative activity by measuring fold change at 5.0 uM incubated for 12 hrs by EROD assay relative to control. Conditions: caco-2, 12 h.

In data set [3] the target is T3, CYP1A1 (Mus musculus, UniProt P00184).
T3 sequence (P00184 whole entry): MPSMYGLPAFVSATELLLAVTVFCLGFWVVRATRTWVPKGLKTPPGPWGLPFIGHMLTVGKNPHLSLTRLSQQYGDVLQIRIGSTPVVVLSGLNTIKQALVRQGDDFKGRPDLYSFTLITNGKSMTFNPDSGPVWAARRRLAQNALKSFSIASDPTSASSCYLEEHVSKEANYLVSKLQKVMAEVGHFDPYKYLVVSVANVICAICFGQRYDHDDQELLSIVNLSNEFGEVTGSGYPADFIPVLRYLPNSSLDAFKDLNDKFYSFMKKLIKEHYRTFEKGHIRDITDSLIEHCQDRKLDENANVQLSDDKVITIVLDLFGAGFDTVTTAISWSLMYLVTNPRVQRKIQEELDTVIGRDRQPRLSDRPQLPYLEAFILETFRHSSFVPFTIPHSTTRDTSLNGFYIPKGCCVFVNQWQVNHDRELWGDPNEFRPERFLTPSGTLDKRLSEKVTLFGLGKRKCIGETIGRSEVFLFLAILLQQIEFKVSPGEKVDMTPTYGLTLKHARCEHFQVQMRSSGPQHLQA
Briefly: Inhibition of CYP1A1 in mouse RAW264.7 cells assessed as relative activity by measuring fold change at 500 nM incubated for 12 hrs by EROD assay relative to control. Conditions: read-out: FC.

In data set [4] the target is T3, CYP1A1. Briefly: Inhibition of CYP1A1 in mouse RAW264.7 cells assessed as relative activity by measuring fold change at 5 uM incubated for 12 hrs by EROD assay relative to control. The note with it: read-out: FC.
The target in data set [5] is T1, CYP1A1. Briefly: Inhibition of CYP1A1 in human Caco-2 cells at 5 uM incubated for 12 hrs by EROD assay relative to control.
Data set [6] addresses T2, Cytochrome P450 1A1. In words: Inhibition of CYP1A1 in human Caco-2 cells incubated for 12 hrs by EROD assay. The note with it: caco-2, 12 h, at 50 to 5000 nM, dose 50-5000 nM.
For data set [7], the target named is T3, CYP1A1. In words: Inhibition of CYP1A1 in mouse RAW264.7 cells at 5 uM incubated for 12 hrs by EROD assay relative to control.

With `Cn1c(=O)n(C)c2cc(C(=O)/C=C/c3ccc(I)o3)ccc21`, the values for the fold induction at 12 h, 0.5 µM in data set [1] and in data set [3] were 0.5 and 0.75, respectively. In addition, in data set [2], the “fold change (FC)” value is on record as 0.18. Besides, the fold induction at 12 h, 5 µM in data set [4] was 0.55.
In data set [5], `Cn1c(=O)n(C)c2cc(C(=O)/C=C/c3ccccc3F)ccc21` yielded an inhibition at 12 h, 5 µM of 100%. The “inhibition (INH)” value in data set [6] was “Dose-dependent-effect”. Also, the fold induction at 12 h, 0.5 µM was found to be 0.32 in data set [1] and 1.17 in data set [3]. In addition, the “fold change (FC)” value in data set [2] is 0.04. For the same molecule, the fold induction at 12 h, 5 µM in data set [4] amounted to 1.02.
Take `CC(=O)n1cc(/C=C/C(=O)c2ccc3c(c2)n(C)c(=O)n3C)c2ccccc21`: the fold induction at 12 h, 0.5 µM in data set [1] is 0.93; in data set [3], 0.92. Further, in data set [2], the “fold change (FC)” value was found to be 0.77. In addition, the fold induction at 12 h, 5 µM in data set [4] was 0.17.
With `Cn1c(=O)n(C)c2cc(C(=O)/C=C/c3ccc(O[Si](C)(C)C(C)(C)C)cc3)ccc21`, the fold induction at 12 h, 0.5 µM in data set [1] was found to be 0.69; in data set [3] it was 1.11. Besides, in data set [2], the “fold change (FC)” value turned out to be 0.43. The fold induction at 12 h, 5 µM in data set [4] came out at 0.89.
The matching figures for `Cn1c(=O)n(C)c2cc(C(=O)/C=C/c3c(F)c(F)c(F)c(F)c3F)ccc21`: 0.8, 0.69, 0.34 and 0.43.
As to `Cn1c(=O)n(C)c2cc(C(=O)/C=C/c3ccc4ccccc4n3)ccc21`, the fold induction at 12 h, 0.5 µM in data set [1] came out at 0.38; in data set [3], 0.61. Also, the “fold change (FC)” value in data set [2] stood at 0.13. Also, the fold induction at 12 h, 5 µM in data set [4] is 0.17.
The matching figures for `Cn1c(=O)n(C)c2cc(C(=O)/C=C/c3ccc(-c4ccccc4)cc3)ccc21`: 0.75, 0.96, 0.15 and 0.81.
As to `Cn1c(=O)n(C)c2cc(C(=O)/C=C/c3cccs3)ccc21`, the inhibition at 12 h, 5 µM in data set [5] and in data set [7] was roughly 80% in each case. Also, the fold induction at 12 h, 0.5 µM amounted to 0.45 in data set [1] and 0.38 in data set [3]. In addition, the “fold change (FC)” value in data set [2] turned out to be 0.18. Moreover, the fold induction at 12 h, 5 µM in data set [4] came to 0.23.
In the case of `C#Cc1ccc(/C=C/C(=O)c2ccc3c(c2)n(C)c(=O)n3C)cc1`, the fold induction at 12 h, 0.5 µM in data set [1] was found to be 0.22; in data set [3], 0.63. Besides, the “fold change (FC)” value in data set [2] was found to be 0.07. The fold induction at 12 h, 5 µM in data set [4] was 0.19.
The like results for `Cn1c(=O)n(C)c2cc(C(=O)/C=C/c3ncccn3)ccc21` were, in that order, 1.05, 0.73, 0.88 and 0.72.
Turning to `CCCCOc1ccc(/C=C/C(=O)c2ccc3c(c2)n(C)c(=O)n3C)cc1`, the results for the fold induction at 12 h, 0.5 µM in data set [1] and in data set [3] were 0.91 and 0.95, respectively. Further, in data set [2], the “fold change (FC)” value is given as 0.23. In addition, in data set [4], the fold induction at 12 h, 5 µM came out at 0.77.
`Cn1c(=O)n(C)c2cc(C(=O)/C=C/c3ccsc3)ccc21`: the inhibition at 12 h, 5 µM in data set [5] and in data set [7] was roughly 80% in each case. Further, the fold induction at 12 h, 0.5 µM in data set [1] was 0.43; in data set [3], 0.58. Also, the “fold change (FC)” value in data set [2] stood at 0.19. The fold induction at 12 h, 5 µM in data set [4] came to 0.32.
As to `Cn1c(=O)n(C)c2cc(C(=O)/C=C/c3ccc(F)cc3F)ccc21`, the fold induction at 12 h, 0.5 µM in data set [1] was found to be 0.68; in data set [3] it was 0.74. Also, the “fold change (FC)” value in data set [2] is reported as 0.42. Further, the fold induction at 12 h, 5 µM in data set [4] worked out at 0.56.
The matching figures for `COc1ccc2c(c1)c(/C=C/C(=O)c1ccc3c(c1)n(C)c(=O)n3C)cn2Cc1ccccc1`: 1.14, 1.15, 0.81 and 0.81.
In the case of `Cn1c(=O)n(C)c2cc(C(=O)/C=C/C3CC3)ccc21`, the fold induction at 12 h, 0.5 µM amounted to 0.71 in data set [1] and 0.8 in data set [3]. Besides, the “fold change (FC)” value in data set [2] stood at 0.12. Further, the fold induction at 12 h, 5 µM in data set [4] came out at 0.38.
In the case of `C#Cc1cccc(/C=C/C(=O)c2ccc3c(c2)n(C)c(=O)n3C)c1`, the fold induction at 12 h, 0.5 µM in data set [1] was determined as 0.18; in data set [3], 1.07. Further, the “fold change (FC)” value in data set [2] is given as 0.01. Further, the fold induction at 12 h, 5 µM in data set [4] turned out to be 0.14.
The like results for `CC(C)=CCC/C(C)=C/COc1c2ccoc2cc2oc(=O)ccc12` [BERGAMOTTIN] were, in that order, 0.19, 0.44, 0.05 and 0.18.
The like results for `Cn1c(=O)n(C)c2cc(C(=O)/C=C/C#Cc3ccccc3)ccc21` were, in that order, 0.85, 0.79, 0.39 and 0.49.
As for `C#Cc1ccc(/C=C/C(=O)c2ccccc2)cc1`, the fold induction at 12 h, 0.5 µM in data set [1] is 0.6; in data set [3], 0.52. Further, in data set [2], the “fold change (FC)” value was determined as 0.3. Moreover, the fold induction at 12 h, 5 µM in data set [4] worked out at 0.18.
The matching figures for `CSc1ccc(/C=C/C(=O)c2ccc3c(c2)n(C)c(=O)n3C)cc1`: 0.81, 0.57, 0.78 and 0.2.
The like results for `Cn1c(=O)n(C)c2cc(C(=O)/C=C/c3ccc(C#N)cc3)ccc21` were, in that order, 0.83, 0.82, 0.51 and 0.6.
Take `Cn1c(=O)n(C)c2cc(C(=O)/C=C/c3cccnc3)ccc21`: the fold induction at 12 h, 0.5 µM was 3.53 in data set [1] and 2.57 in data set [3]. The “fold change (FC)” value in data set [2] is given as 0.93. The fold induction at 12 h, 5 µM in data set [4] turned out to be 0.53.
The matching figures for `Cn1c(=O)n(C)c2cc(C(=O)/C=C/c3ccncc3)ccc21`: 2.34, 1.08, 3.08 and 1.22.
As for `Cn1c(=O)n(C)c2cc(C(=O)/C=C/c3ccc(F)cc3Cl)ccc21`, the fold induction at 12 h, 0.5 µM in data set [1] was found to be 0.84; in data set [3], 0.67. Moreover, in data set [2], the “fold change (FC)” value is 0.38. Also, in data set [4], the fold induction at 12 h, 5 µM worked out at 0.56.
The matching figures for `Cn1c(=O)n(C)c2cc(C(=O)/C=C/c3cccc(F)c3)ccc21`: 0.32, 1.42, 0.07 and 0.8.
The matching figures for `Cc1ccc(/C=C/C(=O)c2ccc3c(c2)n(C)c(=O)n3C)cn1`: 0.66, 0.77, 0.08 and 0.2.
